System: spleen cells
Assay: Cytokine (IFN-γ, IL-4) production in mouse spleen cell culture, sandwich ELISA assay
Assay type: cell-based
Conditions: mouse spleen cells 2×10^5 cells/well, reagent at 2, 20 and 200 ng/mL, supernatant 4 days later, values only in FIG. 1-6
Description: The spleen cells removed from the spleen of mouse were individually prepared to 2×10^5 cells/well (96-well plate) using RPMI1640 culture medium (manufactured by Sigma Corporation) containing 10% fetal calf serum (FCS). A reagent was added to the culture medium at each of the concentrations of 2 ng/mL, 20 ng/mL and 200 ng/mL. The cytokine amount in the culture supernatant 4 days later was measured by sandwich ELISA assay. As the test substances, compounds 33 and 34 obtained in Examples 14 and 15 were used, and α-galactosylceramide represented by the following formula (a) (α-GC, abbreviated as compound a in the Figure) was used as a control substance. In addition, DMSO was used as a control.
The cytokine amount was measured by sandwich ELISA assay in the same manner as in Experimental Example 1 except that compound 23 obtained in Example 6 was used as a test substance. In addition, the time course changes in the amount of IFN-γ production are shown in FIG. 5, and the time course changes in the amount of IL-4 production are shown in FIG. 6.

CCCCCCCCCCCCCCCCCCCCCCCCCC(=O)N[C@@H](COC1OC(CO)C(O)C(O)C1O)[C@H](O)[C@H](O)CCCCCCCCCCCCCC (stereo partly drawn) [α-galactosylceramide, reference compound]
cytokine production pattern (IFN-γ and IL-4 production amount in culture supernatant): produced both IFN-γ and IL-4 in large amounts

CCCCCCCCCCCCCCCCCCCCCCCCCC(=O)N1[C@@H](CCCCCCCCCCCCC)C[C@@H](O)[C@@H]1COC1OC(CO)C(O)C(O)C1O (stereo partly shown) [compound 34]
cytokine production pattern (IFN-γ and IL-4 production amount in culture supernatant): IL-4 preferential cytokine production pattern

CCCCCCCCCCCCCCCCCCCCCCCCCC(=O)N1[C@@H](CCCCCCCCCCCCC)C[C@@H](O)[C@@H]1COC1OC(CO)C(O)C(O)C1O (stereo partly shown) [compound 33]
cytokine production pattern (IFN-γ and IL-4 production amount in culture supernatant): IL-4 preferential cytokine production pattern

CCCCCCCCCCCCCCCCCCCCCCCCCC(=O)N1[C@@H](CCCCCCCCCCCCCC)[C@@H](O)[C@@H]1COC1OC(CO)C(O)C(O)C1O (stereo partly shown) [compound 23]
cytokine production pattern (IFN-γ and IL-4 production amount in culture supernatant): ability to preferentially induce IL-4 production

From patent US20090215707A1, “COMPOUND HAVING CYCLIC STRUCTURE AND USE THEREOF” (RIKEN, priority 2005, published 2009)
